Measurements reported in US20120270237A9, “METHODS FOR THE IDENTIFICATION OF KINASE INTERACTING MOLECULES AND FOR THE PURIFICATION OF KINASE PROTEINS” (Cellzone AG, priority 2009, published 2012).

Assays:
Experiment in all cases: Kinobeads competition binding, HeLa Placenta lysate mix
Design in all cases: capturing and identification of kinases from mixed HeLa placenta lysates; endogenous in cells; host or cells: mixed lysate of HeLa cells and placenta tissue
Details in all cases: 10 μM free compound
CaMK2d = CaMK2d (Homo sapiens, UniProt Q13557)
Procedure: (§1) To one aliquot of cell lysate 10 μM of the free compound (FIG. 3, CZC31326) was added and allowed to bind to proteins in the lysate. Then the affinity matrix with the immobilized compound was added to capture proteins that were not interacting with the previously added free compound. Beads were separated from the lysate and bead bound proteins were eluted in SDS sample buffer and subsequently separated by SDS-Polyacrylamide gel electrophoresis (FIG. 10). Suitable gel bands were cut out and subjected to in-gel proteolytic digestion with trypsin. The second lysate aliquot was processed identically, however no free compound was added (DMSO solvent control). Peptides originating from samples 1 and 2 were labeled with iTRAQ reagents (iTRAQ 114 and iTRAQ 117) and the combined samples were analyzed with a nano-flow liquid chromatography system coupled online to a tandem mass spectrometer (LC-MS/MS) experiment followed by iTRAQ reporter ion quantification in the MS/MS spectra as described in Example 2.

MARK3 = MARK3 (Homo sapiens, UniProt P27448)
Procedure: as §1

Erk2 = Erk2 (Homo sapiens, UniProt P28482)
Procedure: as §1

AurB = AurB (Homo sapiens, UniProt Q96GD4)
Procedure: as §1

MLK3 = MLK3 (Homo sapiens, UniProt Q16584)
Procedure: as §1

GAK = biological target: T1, GAK (Homo sapiens, UniProt O14976)
T1 sequence (O14976 1-1311): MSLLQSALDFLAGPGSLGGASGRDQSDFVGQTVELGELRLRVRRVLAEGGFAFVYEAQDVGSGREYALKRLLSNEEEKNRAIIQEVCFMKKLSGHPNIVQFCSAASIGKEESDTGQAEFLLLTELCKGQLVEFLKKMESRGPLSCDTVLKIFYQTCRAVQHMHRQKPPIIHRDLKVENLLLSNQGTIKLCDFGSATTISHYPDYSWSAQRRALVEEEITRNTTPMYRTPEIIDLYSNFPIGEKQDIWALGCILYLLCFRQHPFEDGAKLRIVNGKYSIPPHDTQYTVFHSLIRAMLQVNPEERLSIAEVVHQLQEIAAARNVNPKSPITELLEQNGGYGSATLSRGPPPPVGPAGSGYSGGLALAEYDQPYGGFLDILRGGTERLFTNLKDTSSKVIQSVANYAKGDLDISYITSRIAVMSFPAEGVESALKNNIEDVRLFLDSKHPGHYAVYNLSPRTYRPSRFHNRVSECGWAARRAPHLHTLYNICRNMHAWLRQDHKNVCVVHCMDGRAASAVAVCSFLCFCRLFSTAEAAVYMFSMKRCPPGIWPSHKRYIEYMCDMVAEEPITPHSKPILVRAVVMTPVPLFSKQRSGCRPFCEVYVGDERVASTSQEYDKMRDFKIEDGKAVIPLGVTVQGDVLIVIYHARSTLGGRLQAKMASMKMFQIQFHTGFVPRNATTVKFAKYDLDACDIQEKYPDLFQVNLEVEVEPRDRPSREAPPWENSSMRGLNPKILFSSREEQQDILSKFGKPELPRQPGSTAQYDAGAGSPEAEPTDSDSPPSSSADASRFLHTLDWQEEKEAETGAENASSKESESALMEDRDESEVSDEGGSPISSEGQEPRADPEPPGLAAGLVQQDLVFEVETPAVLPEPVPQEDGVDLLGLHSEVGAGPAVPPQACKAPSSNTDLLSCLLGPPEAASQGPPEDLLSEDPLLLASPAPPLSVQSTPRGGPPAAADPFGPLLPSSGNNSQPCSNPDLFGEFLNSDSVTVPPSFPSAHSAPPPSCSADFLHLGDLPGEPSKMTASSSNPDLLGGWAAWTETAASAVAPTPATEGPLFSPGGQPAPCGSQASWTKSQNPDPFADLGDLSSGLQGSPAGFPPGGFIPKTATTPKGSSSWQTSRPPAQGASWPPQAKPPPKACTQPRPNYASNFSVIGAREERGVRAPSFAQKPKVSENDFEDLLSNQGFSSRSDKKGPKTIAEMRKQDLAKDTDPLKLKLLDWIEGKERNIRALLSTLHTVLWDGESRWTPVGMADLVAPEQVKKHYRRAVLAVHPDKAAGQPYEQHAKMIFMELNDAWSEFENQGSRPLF
Procedure: as §1

Sequence of CaMK2d (Q13557 whole entry): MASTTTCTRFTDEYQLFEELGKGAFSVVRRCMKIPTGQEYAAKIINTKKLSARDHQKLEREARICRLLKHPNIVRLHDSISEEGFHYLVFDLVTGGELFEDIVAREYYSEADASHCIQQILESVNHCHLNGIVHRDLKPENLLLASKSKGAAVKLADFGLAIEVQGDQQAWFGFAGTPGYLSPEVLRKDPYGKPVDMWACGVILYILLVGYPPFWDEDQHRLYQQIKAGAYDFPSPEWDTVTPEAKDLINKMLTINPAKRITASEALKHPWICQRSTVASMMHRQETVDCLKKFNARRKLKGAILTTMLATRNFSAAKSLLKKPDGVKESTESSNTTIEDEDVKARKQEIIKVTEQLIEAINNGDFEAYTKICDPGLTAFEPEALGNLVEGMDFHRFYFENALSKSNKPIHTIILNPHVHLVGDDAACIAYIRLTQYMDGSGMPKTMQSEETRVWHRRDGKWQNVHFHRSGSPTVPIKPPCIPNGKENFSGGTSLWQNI
Sequence of MARK3 (P27448 whole entry): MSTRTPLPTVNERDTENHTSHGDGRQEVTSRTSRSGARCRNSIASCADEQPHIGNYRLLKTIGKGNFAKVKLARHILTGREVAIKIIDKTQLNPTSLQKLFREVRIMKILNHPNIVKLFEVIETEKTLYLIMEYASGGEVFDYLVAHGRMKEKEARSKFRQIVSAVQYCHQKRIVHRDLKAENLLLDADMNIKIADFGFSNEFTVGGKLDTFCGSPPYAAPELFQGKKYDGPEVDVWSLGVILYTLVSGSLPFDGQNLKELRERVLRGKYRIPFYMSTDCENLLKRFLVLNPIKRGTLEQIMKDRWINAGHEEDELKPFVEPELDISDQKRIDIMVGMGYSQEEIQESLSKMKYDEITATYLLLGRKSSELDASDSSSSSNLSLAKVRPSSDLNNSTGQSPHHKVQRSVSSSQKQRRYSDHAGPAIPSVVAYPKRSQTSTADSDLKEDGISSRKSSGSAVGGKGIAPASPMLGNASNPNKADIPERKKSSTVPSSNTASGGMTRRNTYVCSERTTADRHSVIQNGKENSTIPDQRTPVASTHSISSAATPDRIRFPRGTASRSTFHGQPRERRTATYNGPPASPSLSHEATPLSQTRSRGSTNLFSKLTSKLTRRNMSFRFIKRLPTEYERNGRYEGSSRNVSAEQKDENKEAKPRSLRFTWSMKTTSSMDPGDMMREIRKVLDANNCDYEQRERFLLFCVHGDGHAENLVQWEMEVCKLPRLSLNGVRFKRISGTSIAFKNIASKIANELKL
Sequence of Erk2 (P28482 whole entry): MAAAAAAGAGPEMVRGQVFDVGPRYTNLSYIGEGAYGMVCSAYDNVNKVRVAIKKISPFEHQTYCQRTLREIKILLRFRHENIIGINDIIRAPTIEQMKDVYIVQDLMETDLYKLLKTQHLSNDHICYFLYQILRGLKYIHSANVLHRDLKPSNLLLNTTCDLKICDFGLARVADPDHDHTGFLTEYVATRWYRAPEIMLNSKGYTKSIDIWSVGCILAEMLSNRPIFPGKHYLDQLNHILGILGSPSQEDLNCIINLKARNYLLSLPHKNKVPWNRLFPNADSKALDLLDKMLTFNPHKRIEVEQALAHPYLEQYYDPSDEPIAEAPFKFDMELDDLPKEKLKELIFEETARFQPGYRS
Sequence of MLK3 (Q16584 whole entry): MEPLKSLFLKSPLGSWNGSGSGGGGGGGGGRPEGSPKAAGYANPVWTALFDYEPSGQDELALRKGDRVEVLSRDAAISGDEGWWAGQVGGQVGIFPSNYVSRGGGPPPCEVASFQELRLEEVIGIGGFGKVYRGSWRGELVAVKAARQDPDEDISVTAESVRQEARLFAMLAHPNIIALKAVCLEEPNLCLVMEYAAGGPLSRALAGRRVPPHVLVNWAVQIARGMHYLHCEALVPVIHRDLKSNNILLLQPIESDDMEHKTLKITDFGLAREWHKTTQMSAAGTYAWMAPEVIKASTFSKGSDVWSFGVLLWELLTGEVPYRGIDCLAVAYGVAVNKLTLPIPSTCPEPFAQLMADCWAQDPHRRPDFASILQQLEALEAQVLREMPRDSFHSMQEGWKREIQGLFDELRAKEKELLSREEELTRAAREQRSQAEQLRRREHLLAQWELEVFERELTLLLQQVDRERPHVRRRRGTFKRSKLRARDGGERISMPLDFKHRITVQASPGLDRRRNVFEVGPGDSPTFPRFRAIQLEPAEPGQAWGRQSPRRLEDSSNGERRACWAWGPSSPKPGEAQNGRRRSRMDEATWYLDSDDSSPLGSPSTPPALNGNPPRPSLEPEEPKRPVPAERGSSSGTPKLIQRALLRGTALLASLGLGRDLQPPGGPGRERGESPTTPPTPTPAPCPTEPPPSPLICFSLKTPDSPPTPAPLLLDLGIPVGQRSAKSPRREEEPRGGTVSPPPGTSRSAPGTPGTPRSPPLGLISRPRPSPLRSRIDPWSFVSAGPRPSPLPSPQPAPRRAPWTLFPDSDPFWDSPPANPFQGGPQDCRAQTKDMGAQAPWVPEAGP
Sequence of AurB (Q96GD4 whole entry): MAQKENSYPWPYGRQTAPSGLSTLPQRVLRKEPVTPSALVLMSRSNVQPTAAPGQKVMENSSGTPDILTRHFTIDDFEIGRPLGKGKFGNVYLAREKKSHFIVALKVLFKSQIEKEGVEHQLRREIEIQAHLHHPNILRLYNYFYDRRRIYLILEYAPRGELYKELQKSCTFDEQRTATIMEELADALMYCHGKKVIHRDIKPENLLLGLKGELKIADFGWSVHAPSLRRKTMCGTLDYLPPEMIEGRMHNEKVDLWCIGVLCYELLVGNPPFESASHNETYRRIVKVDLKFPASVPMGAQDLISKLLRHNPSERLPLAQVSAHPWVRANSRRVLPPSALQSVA

For `CS(=O)(=O)Nc1ccccc1Nc1nc(Nc2cccc(OCCN)c2)ncc1Cl` [CZC31326, N-(2-(2-(3-(2-aminoethoxy)phenylamino)-5-chloropyrimidin-4-ylamino)phenyl)methanesulfonamide], the inhibition at 10 µM (CaMK2d) was 72.1%, the inhibition at 10 µM (MARK3) was 93.1% and the inhibition at 10 µM (Erk2) was 68.5%. For the same compound, the inhibition at 10 µM (AurB) was 90.8%, the Competition % (MLK3) was 93.8% and the inhibition at 10 µM (GAK) was 93.6%.
